ChEMBL document CHEMBL1201862, “PubChem BioAssay data set” (2004)
Active and inactive are the calls of the source.

How the values were obtained:
[1] = molecular target: T1, Heat shock factor protein 1 (Mus musculus, UniProt P38532); experiment: decrease of HSF1-responsive luciferase luminescence – cell-based, NIH3T3, dose retest, confirmation (AID 2382); type: functional;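 note: NIH3T3 fibroblasts with HSF1-driven luciferase reporter stressed by proteasome inhibitor MG132; luminescence from HSF1-driven luciferase expression after 8 hours of MG132 stress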
T1 sequence (P38532 whole entry): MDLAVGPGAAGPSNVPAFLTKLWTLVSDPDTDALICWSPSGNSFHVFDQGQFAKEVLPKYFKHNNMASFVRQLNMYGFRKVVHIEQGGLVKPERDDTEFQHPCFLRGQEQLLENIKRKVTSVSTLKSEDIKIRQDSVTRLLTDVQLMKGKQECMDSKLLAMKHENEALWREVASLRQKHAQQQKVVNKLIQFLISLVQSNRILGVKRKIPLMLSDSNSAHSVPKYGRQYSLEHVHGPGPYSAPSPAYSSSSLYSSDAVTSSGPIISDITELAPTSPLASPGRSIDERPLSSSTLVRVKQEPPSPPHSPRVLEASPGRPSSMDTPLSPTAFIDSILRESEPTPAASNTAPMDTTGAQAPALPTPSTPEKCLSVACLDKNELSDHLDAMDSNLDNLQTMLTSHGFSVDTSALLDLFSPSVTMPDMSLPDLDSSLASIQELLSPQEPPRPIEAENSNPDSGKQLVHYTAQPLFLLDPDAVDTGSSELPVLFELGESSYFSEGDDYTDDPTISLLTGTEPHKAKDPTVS

[2] = molecular target: T2, Cytochrome P450 1A2 (Homo sapiens, UniProt P05177);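 note: PubChem cytochrome P450 panel assay, CYP1A2 panel member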
T2 sequence (P05177 whole entry): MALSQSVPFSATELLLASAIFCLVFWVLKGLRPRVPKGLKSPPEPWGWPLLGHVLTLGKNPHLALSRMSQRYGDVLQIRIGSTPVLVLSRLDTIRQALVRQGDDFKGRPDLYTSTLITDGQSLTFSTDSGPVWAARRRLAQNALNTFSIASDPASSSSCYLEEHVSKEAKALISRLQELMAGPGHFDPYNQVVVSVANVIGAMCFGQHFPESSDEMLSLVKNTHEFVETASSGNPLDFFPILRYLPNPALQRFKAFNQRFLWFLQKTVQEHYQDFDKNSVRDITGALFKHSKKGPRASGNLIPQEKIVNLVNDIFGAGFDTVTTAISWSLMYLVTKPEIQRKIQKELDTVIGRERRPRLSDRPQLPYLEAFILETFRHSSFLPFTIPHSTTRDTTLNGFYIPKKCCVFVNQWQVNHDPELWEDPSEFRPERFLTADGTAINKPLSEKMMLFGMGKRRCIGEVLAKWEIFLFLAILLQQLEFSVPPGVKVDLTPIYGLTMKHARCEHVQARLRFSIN

[3] = molecular target: Cytochrome P450 2C19 (Homo sapiens, UniProt P33261); experiment: Cytochrome panel assay with activity outcomes. Panel member name: p450-cyp2c19 Compounds with AC50 equal or less than 10 uM are considered active; type: functional; conditions: read-out: AC50
Chain of Cytochrome P450 2C19 (P33261 whole entry): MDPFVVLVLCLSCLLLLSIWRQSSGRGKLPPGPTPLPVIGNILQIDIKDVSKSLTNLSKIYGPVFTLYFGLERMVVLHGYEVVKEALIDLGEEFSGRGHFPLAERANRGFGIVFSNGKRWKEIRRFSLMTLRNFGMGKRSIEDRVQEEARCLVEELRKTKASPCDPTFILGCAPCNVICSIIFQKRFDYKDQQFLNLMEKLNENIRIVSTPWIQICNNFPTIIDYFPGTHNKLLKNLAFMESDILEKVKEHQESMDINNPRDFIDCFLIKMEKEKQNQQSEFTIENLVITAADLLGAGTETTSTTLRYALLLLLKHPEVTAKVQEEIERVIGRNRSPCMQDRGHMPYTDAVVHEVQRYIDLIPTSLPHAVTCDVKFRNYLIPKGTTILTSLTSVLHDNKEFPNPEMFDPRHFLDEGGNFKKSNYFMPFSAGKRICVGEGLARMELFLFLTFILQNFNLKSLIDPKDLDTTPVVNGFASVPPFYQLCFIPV

[4] = molecular target: T3, Replicative DNA helicase DnaB (Mycobacterium tuberculosis, UniProt P9WMR3); experiment: DnaB intein splicing inhibitors, dose response, biochemical, cell-free fluorescence (AID 449749); type: functional
T3 sequence (P9WMR3 whole entry): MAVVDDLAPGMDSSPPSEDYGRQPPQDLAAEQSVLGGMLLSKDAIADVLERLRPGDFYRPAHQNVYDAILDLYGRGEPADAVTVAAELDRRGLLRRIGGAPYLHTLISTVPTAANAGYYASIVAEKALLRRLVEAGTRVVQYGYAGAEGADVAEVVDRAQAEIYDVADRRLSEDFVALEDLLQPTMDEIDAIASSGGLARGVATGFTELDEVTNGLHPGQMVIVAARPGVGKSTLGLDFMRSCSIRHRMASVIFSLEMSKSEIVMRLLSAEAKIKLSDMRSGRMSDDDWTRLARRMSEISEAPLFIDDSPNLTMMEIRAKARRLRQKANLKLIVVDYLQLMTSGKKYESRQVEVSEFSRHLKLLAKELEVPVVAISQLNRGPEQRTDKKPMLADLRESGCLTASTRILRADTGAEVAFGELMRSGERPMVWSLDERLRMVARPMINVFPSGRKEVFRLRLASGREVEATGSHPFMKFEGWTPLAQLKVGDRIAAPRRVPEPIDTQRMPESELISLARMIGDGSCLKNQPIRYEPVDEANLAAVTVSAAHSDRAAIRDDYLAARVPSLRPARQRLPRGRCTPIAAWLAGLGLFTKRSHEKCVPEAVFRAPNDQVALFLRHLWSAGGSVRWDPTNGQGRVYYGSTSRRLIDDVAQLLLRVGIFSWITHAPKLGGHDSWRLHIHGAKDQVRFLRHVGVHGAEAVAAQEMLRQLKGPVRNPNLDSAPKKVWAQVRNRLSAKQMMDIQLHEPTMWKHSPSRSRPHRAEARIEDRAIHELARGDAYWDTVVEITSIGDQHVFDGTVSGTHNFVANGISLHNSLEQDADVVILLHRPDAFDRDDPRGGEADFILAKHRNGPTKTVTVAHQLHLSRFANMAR

[5] = molecular target: T4, Protein RecA (Mycobacterium tuberculosis, UniProt P9WHJ3); experiment: Fluorescence Cell-Free Homogeneous Dose Retest to Identify Inhibitors of RecA-Intein Splicing Activity. [Related pubchem assays (depositor defined):AID2097, AID2223, AID489010, AID492950]; type: functional
T4 sequence (P9WHJ3 whole entry): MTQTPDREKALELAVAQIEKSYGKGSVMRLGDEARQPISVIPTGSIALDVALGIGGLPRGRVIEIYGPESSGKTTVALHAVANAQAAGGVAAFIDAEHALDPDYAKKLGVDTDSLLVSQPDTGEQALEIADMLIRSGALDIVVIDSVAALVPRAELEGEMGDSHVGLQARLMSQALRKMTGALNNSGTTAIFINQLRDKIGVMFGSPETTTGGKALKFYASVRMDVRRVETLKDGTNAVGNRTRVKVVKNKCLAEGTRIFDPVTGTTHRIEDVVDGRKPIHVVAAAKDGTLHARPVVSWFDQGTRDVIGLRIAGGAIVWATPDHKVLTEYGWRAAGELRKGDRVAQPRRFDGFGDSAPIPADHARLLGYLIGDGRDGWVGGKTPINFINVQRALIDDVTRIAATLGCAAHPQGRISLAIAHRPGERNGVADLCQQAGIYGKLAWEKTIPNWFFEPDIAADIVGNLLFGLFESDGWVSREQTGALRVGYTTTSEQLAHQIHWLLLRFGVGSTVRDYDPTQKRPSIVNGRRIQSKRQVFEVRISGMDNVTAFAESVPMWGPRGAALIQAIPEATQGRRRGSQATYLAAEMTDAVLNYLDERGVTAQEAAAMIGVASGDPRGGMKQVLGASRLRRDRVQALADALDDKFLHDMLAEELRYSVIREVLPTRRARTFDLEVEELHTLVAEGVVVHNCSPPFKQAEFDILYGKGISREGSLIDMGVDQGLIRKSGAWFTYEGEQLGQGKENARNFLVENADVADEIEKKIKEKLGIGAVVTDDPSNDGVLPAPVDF

[6] = molecular target: Cytochrome P450 2C9 (Homo sapiens, UniProt P11712)
Chain of Cytochrome P450 2C9 (P11712 whole entry): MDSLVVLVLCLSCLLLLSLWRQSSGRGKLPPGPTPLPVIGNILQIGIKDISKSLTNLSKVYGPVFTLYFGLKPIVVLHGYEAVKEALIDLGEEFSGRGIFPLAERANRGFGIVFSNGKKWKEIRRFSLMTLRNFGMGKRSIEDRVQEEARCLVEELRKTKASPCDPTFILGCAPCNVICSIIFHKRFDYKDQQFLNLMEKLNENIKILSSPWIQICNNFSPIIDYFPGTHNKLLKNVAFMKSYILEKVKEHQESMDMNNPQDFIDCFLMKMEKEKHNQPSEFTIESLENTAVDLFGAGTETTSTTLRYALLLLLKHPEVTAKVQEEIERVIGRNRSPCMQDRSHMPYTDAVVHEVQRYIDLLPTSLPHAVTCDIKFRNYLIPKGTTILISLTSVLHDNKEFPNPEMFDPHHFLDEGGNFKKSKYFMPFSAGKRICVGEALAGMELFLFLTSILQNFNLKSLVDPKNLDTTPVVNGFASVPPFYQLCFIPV

[7] = molecular target: Cytochrome P450 3A4 (Homo sapiens, UniProt P08684);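 note: CYP3A4 tested as one member of a cytochrome P450 panel screen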
Chain of Cytochrome P450 3A4 (P08684 whole entry): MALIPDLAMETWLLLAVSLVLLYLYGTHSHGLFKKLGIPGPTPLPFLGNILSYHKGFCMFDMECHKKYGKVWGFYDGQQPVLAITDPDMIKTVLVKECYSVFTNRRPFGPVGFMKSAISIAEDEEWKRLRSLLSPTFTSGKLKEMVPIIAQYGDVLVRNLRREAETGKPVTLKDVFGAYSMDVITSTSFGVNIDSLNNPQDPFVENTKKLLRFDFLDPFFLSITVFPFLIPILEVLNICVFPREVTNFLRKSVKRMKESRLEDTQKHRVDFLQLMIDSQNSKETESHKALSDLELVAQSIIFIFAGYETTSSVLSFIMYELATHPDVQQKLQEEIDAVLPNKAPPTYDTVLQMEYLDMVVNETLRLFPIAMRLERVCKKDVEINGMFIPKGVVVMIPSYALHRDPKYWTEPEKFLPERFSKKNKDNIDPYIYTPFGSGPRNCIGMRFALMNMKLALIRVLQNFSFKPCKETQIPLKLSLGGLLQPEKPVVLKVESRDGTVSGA

[8] = molecular target: Cytochrome P450 2D6 (Homo sapiens, UniProt P10635);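 note: CYP2D6 member of a cytochrome P450 panel assay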
Chain of Cytochrome P450 2D6 (P10635 whole entry): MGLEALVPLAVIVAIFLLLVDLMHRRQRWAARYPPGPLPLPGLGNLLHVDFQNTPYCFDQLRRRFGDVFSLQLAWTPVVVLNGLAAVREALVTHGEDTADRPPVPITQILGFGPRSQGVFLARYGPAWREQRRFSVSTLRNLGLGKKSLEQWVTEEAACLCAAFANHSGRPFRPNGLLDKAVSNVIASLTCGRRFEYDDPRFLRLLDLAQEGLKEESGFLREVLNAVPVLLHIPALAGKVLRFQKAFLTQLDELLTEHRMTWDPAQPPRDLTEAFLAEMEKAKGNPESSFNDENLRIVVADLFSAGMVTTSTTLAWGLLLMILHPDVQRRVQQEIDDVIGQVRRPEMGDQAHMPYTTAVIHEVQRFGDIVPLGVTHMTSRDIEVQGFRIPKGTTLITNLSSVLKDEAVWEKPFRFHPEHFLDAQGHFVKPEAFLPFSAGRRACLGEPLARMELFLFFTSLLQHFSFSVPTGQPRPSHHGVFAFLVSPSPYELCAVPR

For `CCOC(=O)c1ccc(Nc2[nH]cnc3ncnc2-3)cc1`, the EC50 [1] was > 195 µM (not active).
For `Cc1cc(C)cc(C(=O)OC2C[C@H]3CC[C@@H](C2)N3C)c1` (stereo partly specified), the AC50 [2] was 25.1 µM (inconclusive) and the AC50 [3] was 39.8 µM (inconclusive).
In the case of `O=C(c1ccc(Cl)cc1)n1cnc2ccccc21`, the AC50 [4] is reported as 7.49 µM (active) and the EC50 [5] is reported as 8.13 µM (active).
In the case of `C[C@H]1CCCC=CC2C[C@H](O)C[C@@H]2[C@H](O)/C=C\C(=O)O1` (stereo partly specified), the AC50 [2] is reported as 15.8 µM (inconclusive), the AC50 [6] is reported as 15.8 µM (inconclusive) and the AC50 [7] is reported as 31.6 µM (inconclusive).
For `c1ccc(N2CC[C@@]3(CCCNC3)C2)cc1`, the AC50 [2] was 39.8 µM (inconclusive), the AC50 [8] was 10 µM (inconclusive) and the AC50 [7] was 20 µM (inconclusive).
For `N#CC(c1ccccc1F)(c1ncc(C(F)(F)F)cc1Cl)N1CCOCC1` (stereo unspecified), the AC50 [2] was 25.1 µM (inconclusive), the AC50 [6] was 31.6 µM (inconclusive) and the AC50 [7] was 22.4 µM (inconclusive).
In the case of `O=C(Nc1ccccc1NC(=O)c1csnn1)c1csnn1`, the EC50 [1] is reported as > 195 µM (not active).
With `CC(=O)Nc1ccc(SCC(=O)N2CCN(S(=O)(=O)c3ccccc3)CC2)cc1` the EC50 [1] was > 195 µM (not active).
In the case of `Cn1cnnc1SCC(=O)OCN1C(=O)c2ccccc2C1=O`, the AC50 [2] is reported as 25.1 µM (inconclusive) and the AC50 [3] is reported as 10 µM (inconclusive).
For `CNCC(O)CN(c1ccccc1)c1ccccc1` (stereo unspecified), the AC50 [4] was 34.3 µM (active) and the EC50 [5] was 10.8 µM (active).
In the case of `C=CCOc1c2ccc(C(=O)NC3CCCc4ccccc43)cc2nn1C` (stereo unspecified), the AC50 [2] is reported as 15.8 µM (inconclusive) and the AC50 [8] is reported as 22.4 µM (inconclusive).
For `COc1ccc(-n2c3c(c(=O)[nH]c2=O)C(C(F)(F)F)(C(F)(F)F)NC(CC(C)C)=N3)cc1`, the AC50 [2] was 39.8 µM (inconclusive), the AC50 [6] was 28.2 µM (inconclusive) and the AC50 [7] was 17.8 µM (inconclusive). For the same compound, the AC50 [3] was 10 µM (inconclusive).
